Where two headings read alike, the source gives them in different places.
How the values were obtained:
[1] = target: T1, human DGKα (Homo sapiens, UniProt P23743); test: DGKα LIPGLO assay (extruded liposome substrate), in vitro DGK inhibition; format: biochemical; settings: read-out: DGKa LIPGLO IC50
T1 construct: TVMV protease cleavage site (C); Hexa-His (C); made in house; host or cells: Sf9 insect cells (baculovirus, Bac-to-Bac)

[2] = target: T2, human DGKζ (Homo sapiens, UniProt Q13574); test: DGKζ LIPGLO assay (extruded liposome substrate), in vitro DGK inhibition; format: biochemical; settings: read-out: DGKz LIPGLO IC50
T2 construct: TVMV protease cleavage site (C); Hexa-His (C); made in house; host or cells: Sf9 insect cells (baculovirus, Bac-to-Bac)
T2 sequence (Q13574 with tags, fused parts or gaps isoform Q13574-4): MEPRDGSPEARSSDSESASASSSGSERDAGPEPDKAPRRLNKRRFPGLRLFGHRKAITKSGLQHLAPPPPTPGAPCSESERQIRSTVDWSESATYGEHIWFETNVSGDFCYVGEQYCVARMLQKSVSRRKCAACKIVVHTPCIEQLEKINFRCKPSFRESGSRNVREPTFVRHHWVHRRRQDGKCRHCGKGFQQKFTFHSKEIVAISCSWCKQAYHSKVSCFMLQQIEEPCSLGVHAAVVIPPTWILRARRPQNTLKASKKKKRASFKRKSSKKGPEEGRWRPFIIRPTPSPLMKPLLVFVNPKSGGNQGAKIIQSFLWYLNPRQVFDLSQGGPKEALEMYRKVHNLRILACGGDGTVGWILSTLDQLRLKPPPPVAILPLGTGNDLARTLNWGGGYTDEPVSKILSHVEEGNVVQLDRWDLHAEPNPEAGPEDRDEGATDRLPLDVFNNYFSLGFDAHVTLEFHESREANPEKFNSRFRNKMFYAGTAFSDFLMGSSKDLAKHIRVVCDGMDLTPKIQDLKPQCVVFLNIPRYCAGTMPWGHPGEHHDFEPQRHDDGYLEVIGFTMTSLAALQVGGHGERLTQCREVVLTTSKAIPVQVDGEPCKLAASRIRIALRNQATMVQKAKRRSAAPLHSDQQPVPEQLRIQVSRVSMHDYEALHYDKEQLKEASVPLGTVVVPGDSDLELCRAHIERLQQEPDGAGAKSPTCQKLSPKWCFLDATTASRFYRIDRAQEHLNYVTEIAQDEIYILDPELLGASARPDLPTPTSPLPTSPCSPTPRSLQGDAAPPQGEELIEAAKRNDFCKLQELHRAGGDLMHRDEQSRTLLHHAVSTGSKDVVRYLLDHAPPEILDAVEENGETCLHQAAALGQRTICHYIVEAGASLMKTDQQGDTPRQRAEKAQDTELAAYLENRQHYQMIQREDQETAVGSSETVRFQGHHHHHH

T1 sequence (P23743 with tags, fused parts or gaps): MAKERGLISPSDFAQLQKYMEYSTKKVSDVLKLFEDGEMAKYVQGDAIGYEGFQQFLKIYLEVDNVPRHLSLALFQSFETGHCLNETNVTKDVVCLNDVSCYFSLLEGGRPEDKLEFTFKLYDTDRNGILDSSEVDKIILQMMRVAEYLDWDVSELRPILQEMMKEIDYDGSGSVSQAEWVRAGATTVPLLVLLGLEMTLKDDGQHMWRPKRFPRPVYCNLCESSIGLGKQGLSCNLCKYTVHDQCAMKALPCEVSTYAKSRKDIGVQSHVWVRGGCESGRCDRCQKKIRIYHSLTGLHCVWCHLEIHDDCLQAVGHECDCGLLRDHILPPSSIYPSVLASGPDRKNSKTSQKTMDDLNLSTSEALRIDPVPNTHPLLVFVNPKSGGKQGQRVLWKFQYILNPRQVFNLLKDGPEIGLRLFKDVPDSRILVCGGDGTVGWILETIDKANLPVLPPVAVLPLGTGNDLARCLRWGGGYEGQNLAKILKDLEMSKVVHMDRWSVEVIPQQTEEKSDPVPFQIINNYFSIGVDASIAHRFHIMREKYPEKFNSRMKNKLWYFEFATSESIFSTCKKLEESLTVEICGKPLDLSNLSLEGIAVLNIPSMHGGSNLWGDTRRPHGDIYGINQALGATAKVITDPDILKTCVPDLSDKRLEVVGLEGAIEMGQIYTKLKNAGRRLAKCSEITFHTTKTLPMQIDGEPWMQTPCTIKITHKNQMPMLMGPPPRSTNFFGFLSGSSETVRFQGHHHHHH

SMILES | IC50 ([1]; liposome (LIPGLO) assay) | IC50 ([2]; liposome (LIPGLO) assay) | IC50 ([1]; DGKα liposome (LIPGLO) assay) | IC50 ([2]; DGKζ liposome (LIPGLO) assay)
CC[C@@H]1CN(c2cc(=O)n(C)c3ccc(C#N)nc23)[C@@H](CC)CN1Cc1ccc(F)cc1 [Example 1061] | 11 nM | 100 nM |  | 
CC(c1ccc(Br)cc1)N1C[C@H](C)N(c2c(C#N)c(=O)n(C)c3ccc(C#N)nc23)C[C@H]1C (single isomer, unassigned) [Example 790] |  |  | 610 nM | > 250000 nM
CSCC(c1ccc(F)cc1)N1C[C@H](C)N(c2cc(=O)n(C)c3ccc(C#N)nc23)C[C@H]1C (single isomer, unassigned) [Example 1319] | 99 nM | 610 nM |  | 
C[C@@H]1CN(c2c(C(F)F)c(=O)n(C)c3ccc(C#N)nc23)[C@@H](C)CN1Cc1ccc(OC(F)(F)F)cc1F [Example 570] | > 250000 nM | > 250000 nM |  | 
CCOC[C@@H]1CN(c2cc(=O)n(C)c3ccc(C#N)nc23)[C@@H](C)CN1C(C)c1ccc(OC(F)(F)F)cc1 (single isomer, unassigned) [Example 1397] | 1300 nM | 54 nM |  | 
C[C@@H]1CN(c2c(C#N)c(=O)n(C)c3ccc(C#N)nc23)CCN1Cc1cccnc1 [Example 998] |  |  | 21000 nM | > 250000 nM
Cc1nc2ccc(C(C)N3C[C@H](C)N(c4cc(=O)n(C)c5ccc(C#N)nc45)C[C@H]3C)cc2s1 (single isomer, unassigned) [Example 1264] | 10000 nM | 3600 nM |  | 
CC(c1ccc(C(=O)O)cc1)N1CCN(c2c(C#N)c(=O)n(C)c3ccc(C#N)nc23)C[C@H]1C (stereo partly shown) [Example 973] |  |  | > 250000 nM | > 250000 nM
C[C@@H]1CN(c2cc(=O)n(C)c3ccc(C#N)nc23)[C@@H](C)CN1C(c1ccc(F)cc1)c1ccc(P(C)(C)=O)cc1 (single isomer, unassigned) [Example 1293] | 100000 nM | 6100 nM |  | 
CC(c1ccc(P(C)(C)=O)cc1)N1C[C@H](C)N(c2c(C#N)c(=O)n(C)c3ccc(C#N)nc23)C[C@H]1C (single isomer, unassigned) [Example 1295] | 130000 nM | 47000 nM |  | 
CC[C@@H]1CN(c2cc(=O)n(C)c3ccc(C#N)nc23)[C@@H](C)CN1C(C)c1ccc(Cl)cc1F (single isomer, unassigned) [Example 1353] | 460 nM | 510 nM |  | 
C[C@@H]1CN(c2cc(=O)n(C)c3ccc(C#N)nc23)[C@@H](C)CN1C(c1ccc(F)cc1)c1nc(C(C)(C)C)co1 (single isomer, unassigned) [Example 778] |  |  | 150 nM | 340 nM
CC[C@@H]1CN(c2cc(=O)n(C)c3ccc(C#N)nc23)[C@@H](C)CN1C(CC1CCCCC1)c1ccc(OC(F)(F)F)cc1 (stereo partly shown) [Example 1195] | 830 nM | 280 nM |  | 
C[C@@H]1CN(c2c(C#N)c(=O)n(C)c3ccc(C#N)nc23)CCN1Cc1c(F)cccc1Cl [Example 984] |  |  | 1500 nM | 880 nM
C[C@@H]1CN(c2c(C#N)c(=O)n(C)c3ccc(C#N)nc23)CCN1C(c1ccc(F)cc1)c1ccncn1 (single isomer, unassigned) [Example 313] | 2300 nM | 4800 nM |  | 
Cc1ccc(C(c2ccc(Cl)cc2)N2C[C@H](C)N(c3c(C#N)c(=O)n(C)c4ccc(C#N)nc34)C[C@H]2C)cc1 (stereo partly shown) [Example 826] |  |  | 43000 nM | 3100 nM
CC[C@@H]1CN(c2cc(=O)n(C)c3ccc(C#N)nc23)[C@@H](C)CN1C(C)c1ccc(OC(F)(F)F)cc1F (single isomer, unassigned) [Example 1096] | 2200 nM | 1400 nM |  | 
CC(c1cc(F)c(F)cc1Cl)N1C[C@H](C)N(c2cc(=O)n(C)c3ccc(C#N)nc23)C[C@H]1C (stereo partly drawn) [Example 486, 8-((2S,5R)-4-(1-(2-chloro-4,5-difluorophenyl)ethyl)-2,5-dimethylpiperazin-1-yl)-5-methyl-6-oxo-5,6-dihydro-1,5-naphthyridine-2-carbonitrile] | 27000 nM | 14000 nM |  | 
CC(c1ccc(C(F)(F)F)cc1)N1C[C@H](C)N(c2c(C#N)c(=O)n(C)c3ccc(C#N)nc23)C[C@H]1C (stereo partly shown) [Example 788] |  |  | 4800 nM | > 250000 nM
CC[C@H]1CN(C(C)c2cc(F)c(F)c(F)c2)[C@H](C)CN1c1cc(=O)n(C)c2ccc(C#N)nc12 (single isomer, unassigned) [Example 1382] | 660 nM | 60 nM |  | 
C[C@@H]1CN(c2cc(=O)n(C)c3ccc(C#N)nc23)[C@@H](C)CN1C(c1cccc(F)c1)c1ccccn1 (stereo partly drawn) [Example 404, 8-((2S,5R)-4-((3-fluorophenyl)(pyridin-2-yl)methyl)-2,5-dimethylpiperazin-1-yl)-5-methyl-6-oxo-5,6-dihydro-1,5-naphthyridine-2-carbonitrile] | 360 nM | 4100 nM |  | 
Cc1nc2ccc(C(C)N3C[C@H](C)N(c4cc(=O)n(C)c5ccc(C#N)nc45)C[C@H]3C)cc2s1 (single isomer, unassigned) [Example 1263] | 950 nM | 150 nM |  | 
CC(c1ccc(C#N)c(OCCN(C)C)c1)N1C[C@H](C)N(c2cc(=O)n(C)c3ccc(C#N)nc23)C[C@H]1C (single isomer, unassigned) [Example 1323] | 130000 nM | 7100 nM |  | 
C[C@@H]1CN(c2cc(=O)n(C)c3ccc(C#N)nc23)[C@@H](C)CN1C(c1ccc(Cl)cc1)c1ccncn1 (single isomer, unassigned) [Example 397] | 1800 nM | 16000 nM |  | 
C[C@@H]1CN(c2cc(=O)n(C)c3ccc(C#N)nc23)[C@@H](C)CN1C(c1ccc(F)cc1)c1cccnn1 (single isomer, unassigned) [Example 384] | 1500 nM | 6900 nM |  | 
CC[C@H]1CN(C(c2ccc(F)cc2)c2nc(C3CC3)no2)[C@H](CC)CN1c1cc(=O)n(C)c2ccc(C#N)nc12 (stereo partly shown) [Example 1064] | 80 nM | 39 nM |  | 
CC(c1ccc(F)cc1)N1C[C@H](C)N(c2c(C#N)c(=O)n(C)c3ccc(C#N)nc23)C[C@H]1C (single isomer, unassigned) [Example 783] |  |  | 1200 nM | > 250000 nM
C[C@@H]1CN(c2cc(=O)n(C)c3ccc(C#N)nc23)[C@@H](C)CN1Cc1cn(C)nn1 [Example 1435] | 160000 nM |  |  | 

Other lines, results leading:

IC50 ([1]; liposome (LIPGLO) assay) | IC50 ([2]; liposome (LIPGLO) assay) | IC50 ([1]; DGKα liposome (LIPGLO) assay) | IC50 ([2]; DGKζ liposome (LIPGLO) assay) | SMILES
150 nM | 30 nM |  |  | CC(c1cccc(OC(F)F)c1)N1C[C@H](C)N(c2cc(=O)n(C)c3ccc(C#N)nc23)C[C@H]1C (single isomer, unassigned) [Example 1271]
5400 nM | 1300 nM |  |  | CC(c1ccc(F)c(C#N)c1)N1C[C@H](C)N(c2cc(=O)n(C)c3ccc(C#N)nc23)C[C@H]1C (stereo partly shown) [Example 1262]
460 nM | 4000 nM |  |  | C[C@@H]1CN(c2cc(=O)n(C)c3ccc(C#N)nc23)[C@@H](C)CN1C(c1ccc(OC(F)(F)F)cc1)c1ccccn1 (stereo partly drawn) [Example 405, 8-((2S,5R)-2,5-dimethyl-4-(pyridin-2-yl(4-(trifluoromethoxy)phenyl)methyl)piperazin-1-yl)-5-methyl-6-oxo-5,6-dihydro-1,5-naphthyridine-2-carbonitrile]
> 250000 nM | 4500 nM |  |  | C[C@@H]1CN(c2cc(=O)n(C)c3ccc(C#N)nc23)[C@@H](C)CN1C(c1ccc(F)cc1)c1ccccc1N1CCOCC1 (single isomer, unassigned) [Example 664]
 |  | > 250000 nM | 83000 nM | CC(c1ccc(C(=O)O)cc1)N1C[C@H](C)N(c2c(C#N)c(=O)n(C)c3ccc(C#N)nc23)C[C@H]1C (stereo partly shown) [Example 786]
1400 nM | 1800 nM |  |  | C[C@@H]1CN(c2cc(=O)n(C)c3ccc(C#N)nc23)[C@@H](C)CN1C(c1ccc(OC(F)(F)F)cc1F)C1CC1 (stereo partly drawn) [Example 481, 8-((2S,5R)-4-(cyclopropyl(2-fluoro-4-(trifluoromethoxy)phenyl)methyl)-2,5-dimethylpiperazin-1-yl)-5-methyl-6-oxo-5,6-dihydro-1,5-naphthyridine-2-carbonitrile]
150000 nM | 2900 nM |  |  | Cn1c(=O)cc(N2CCN(C(c3ccc(F)cc3)c3ccc(F)cc3)C(COC(F)F)C2)c2nc(C#N)ccc21 (single isomer, unassigned) [Example 1187]
 | 31 nM |  |  | CC[C@H]1CN(C(c2ccc(F)cc2)c2nc(C3CC3)no2)[C@H](CC)CN1c1cc(=O)n(C)c2ccc(C#N)nc12 (stereo partly shown) [Example 1065]
 |  | 1500 nM | 1400 nM | C[C@@H]1CN(c2c(C#N)c(=O)n(C)c3ccc(C#N)nc23)CCN1C(c1ccc(Cl)cc1)c1ccc(C#N)cc1 (single isomer, unassigned) [Example 872]
 |  | 420 nM | 3900 nM | Cc1ccc(CN2CCN(c3c(C#N)c(=O)n(C)c4ccc(C#N)nc34)C[C@H]2C)cc1 [Example 1007]
130000 nM | 53000 nM |  |  | CC(c1ccc(C#N)c(OCCN(C)C)c1)N1C[C@H](C)N(c2cc(=O)n(C)c3ccc(C#N)nc23)C[C@H]1C (single isomer, unassigned) [Example 1322]
710 nM | 3400 nM |  |  | C[C@@H]1CN(c2c(C#N)c(=O)n(C)c3ccc(C#N)nc23)CCN1C(c1ccc(F)cc1)c1ccncn1 (single isomer, unassigned) [Example 312]
 |  | 5900 nM | 2800 nM | Cc1ccc(C(c2ccc(F)cc2Cl)N2CCN(c3c(C#N)c(=O)n(C)c4ccc(C#N)nc34)C[C@H]2C)nc1 (stereo partly shown) [Example 938]
 |  | 5700 nM | 13000 nM | COC(=O)c1ccc(C(C)N2CCN(c3c(C#N)c(=O)n(C)c4ccc(C#N)nc34)C[C@H]2C)cc1 (stereo partly shown) [Example 980]
280 nM | 1700 nM |  |  | C[C@@H]1CN(c2cc(=O)n(C)c3ccc(C#N)nc23)[C@@H](C)CN1C(c1ccc(C#N)cc1)c1ccc(F)cn1 (stereo partly drawn) [Example 464, 8-((2S,5R)-4-((4-cyanophenyl)(5-fluoropyridin-2-yl)methyl)-2,5-dimethylpiperazin-1-yl)-5-methyl-6-oxo-5,6-dihydro-1,5-naphthyridine-2-carbonitrile]
150000 nM |  |  |  | Cc1nnc(C(C)N2C[C@H](C)N(c3cc(=O)n(C)c4ccc(C#N)nc34)C[C@H]2C)o1 (stereo partly shown) [Example 1437]

Source: patent US10669272B2, “Substituted naphthyridinone compounds useful as T cell activators” (BRISTOL-MYERS SQUIBB COMPANY, priority 2018, dated 2020)
